Assay results: the supplement of paper PMC10307832

Key:
Test in all cases: relative viability (nuclei count vs DMSO), 5 days (fraction); higher = more cells survive
[1] = compound: OCc1c[nH]c2ccccc12 [Indole-3-carbinol] + CC(=O)c1c(C)c2cnc(Nc3ccc(N4CCNCC4)cn3)nc2n(C2CCCC2)c1=O [Palbociclib] (partner 0.5 µM)
Procedure, shortened: (§1)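 Relative viability equals treated-well nuclei counts divided by vehicle-well nuclei counts. Counts came from 4× images of lung cancer cell lines grown in 1536-well plates for 5 days after pin-tool dosing on the day after seeding. Dosing used one drug alone or a fixed anchor-drug dose plus five library-drug doses (not always all listed) in √10 steps, and values are medians of duplicate plates.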

[2] = compound: OCc1c[nH]c2ccccc12 [Indole-3-carbinol] + CCNC(=O)c1noc(-c2cc(C(C)C)c(O)cc2O)c1-c1ccc(CN2CCOCC2)cc1 [Luminespib] (partner 0.01 µM)
Procedure, shortened: as §1

[3] = compound: OCc1c[nH]c2ccccc12 [Indole-3-carbinol] + C[C@]1(O)C[C@@H](c2nc(-c3ccc4ccc(-c5ccccc5)nc4c3)c3c(N)nccn32)C1 [Linsitinib] (partner 1 µM)
Procedure, shortened: as §1

[4] = compound: OCc1c[nH]c2ccccc12 [Indole-3-carbinol] + NC(=O)Nc1cc(-c2cccc(F)c2)sc1C(=O)N[C@H]1CCCNC1 [AZD7762] (partner 0.2 µM)
Procedure, shortened: as §1

[5] = compound: OCc1c[nH]c2ccccc12 [Indole-3-carbinol] + O=C(c1cc(Cc2n[nH]c(=O)c3ccccc23)ccc1F)N1CCN(C(=O)C2CC2)CC1 [Olaparib] (partner 8 µM)
Procedure, shortened: as §1

Cell Line	relative viability ([1]; first compound 0.253 µM)	relative viability ([1]; first compound 0.8 µM)	relative viability ([1]; first compound 2.53 µM)	relative viability ([1]; first compound 8 µM)	relative viability ([2]; first compound 0.253 µM)	relative viability ([2]; first compound 0.8 µM)	relative viability ([2]; first compound 2.53 µM)	relative viability ([2]; first compound 8 µM)	relative viability ([3]; first compound 0.253 µM)	relative viability ([3]; first compound 0.8 µM)	relative viability ([3]; first compound 2.53 µM)	relative viability ([3]; first compound 8 µM)	relative viability ([4]; first compound 0.253 µM)	relative viability ([4]; first compound 0.8 µM)	relative viability ([4]; first compound 2.53 µM)	relative viability ([4]; first compound 8 µM)	relative viability ([5]; first compound 0.253 µM)	relative viability ([5]; first compound 0.8 µM)	relative viability ([5]; first compound 2.53 µM)	relative viability ([5]; first compound 8 µM)
HCC-827	0.495	0.292	0.479	0.471	0.579	0.622	0.67	0.644	1.04	1.01	0.962	0.942	0.228	0.192	0.213	0.265	0.67	0.621	0.719	0.61
HOP-62	0.444	0.457	0.451	0.426	0.911	0.927	0.937	0.831	1.03	1.06	1.14	0.937	0.65	0.61	0.631	0.607	0.541	0.368	0.525	0.399
IA-LM									0.674	0.593	0.637	0.444					0.89	0.815	0.868	0.752
LC-2-ad	0.533	0.534	0.513	0.455	1.13	1.15	1.26	0.953	0.827	0.791	0.806	0.783	0.865	0.873	0.828	0.82	0.768	0.737	0.696	0.656
LCLC-97TM1	0.237	0.266	0.225	0.236	0.823	0.935	0.859	0.865	0.163	0.159	0.178	0.174	0.39	0.297	0.236	0.234	0.38	0.552	0.489	0.265
NCI-H520	0.225	0.183	0.21	0.217	0.188	0.178	0.219	0.211	1.04	0.872	1.24	0.854					0.336	0.341	0.383	0.265
NCI-H596					0.734	1.01	0.913	1	1.02	1.08	1.07	0.954	1.06	1.07	1.11	1.06	0.602	0.738	0.451	0.653
NCI-H661	0.426	0.412	0.447	0.444	0.922	0.952	0.965	0.895	0.542	0.378	0.623	0.676					0.775	0.771	0.866	0.742
NCI-H1563					0.454	0.494	0.512	0.495	1.24	1.27	1.23	1.08								
NCI-H1650	0.376	0.341	0.338	0.351	0.167		0.19	0.221									0.736	0.889	0.92	0.768
NCI-H1703									0.786	0.413	0.665	0.636	0.155		0.113	0.103	0.389	0.557	0.389	0.553
